Measured values reported in patent publication US9718817B2, “Aryl and heteroaryl ether compounds as ROR gamma modulators” (Glenmark Pharmaceuticals S.A., priority 2014, dated 2017).

Biological target: T1, GST-tagged ROR gamma ligand binding domain (LBD) (Homo sapiens, UniProt P51449)
T1 construct: purchased Invitrogen
T1 sequence (P51449 269-508 limits assumed): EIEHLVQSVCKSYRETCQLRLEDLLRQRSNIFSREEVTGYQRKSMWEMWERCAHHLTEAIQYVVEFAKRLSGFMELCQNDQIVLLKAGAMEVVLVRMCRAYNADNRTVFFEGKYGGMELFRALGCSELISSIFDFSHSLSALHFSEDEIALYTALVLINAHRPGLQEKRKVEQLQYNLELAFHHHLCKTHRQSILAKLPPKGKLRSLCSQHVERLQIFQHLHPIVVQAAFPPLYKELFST
Experiment: TR-FRET assay for ROR gamma (LanthaScreen co-activator peptide recruitment)
Type: biochemical
Details: for IC50: class symbols, from dose response curve; for inhibition at 1 µM: compound 1 μM; for inhibition at 1 µM / inhibition at 10 µM: TR-FRET ratio 520/495, percent of control; for inhibition at 10 µM: compound 10 μM
How it was run: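 Antagonist mode: 10 nM GST-RORγ LBD pre-incubated with compound 1 h at 22 °C in 25 mM HEPES pH 7.4, 100 mM NaCl, 5 mM DTT, 0.01% BSA, 4% DMSO final. Then 300 nM fluorescein-D22 co-activator peptide plus 10 nM Tb-anti-GST added, 1 h at room temperature. IC50 by nonlinear regression of the 520/495 TR-FRET ratio as percent of no-compound control.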

Q: `CCS(=O)(=O)c1ccc(CC(=O)Nc2ccc(OC3(c4ccc(Cl)c(F)c4)CCCC3)cc2)cc1` [Example 120, N-{4-[1-(4-Chloro-3-fluorophenyl)-cyclopentyloxy]-phenyl}-2-(4-ethanesulfonyl-phenyl)-acetamide] was tested. Which IC50 did it give?
A: The IC50 was less than 50 nM.

Q: And the inhibition at 1 µM?
A: Its inhibition at 1 µM is 84.8%.

Q: What about the inhibition at 10 µM of the same molecule?
A: The inhibition at 10 µM was 89.6%.

Q: Which IC50 does the source give for `CCS(=O)(=O)c1ccc(CC(=O)Nc2ccc(OC3(c4ccc(Cl)c(F)c4)CCCC3)c(F)c2)cc1` [Example 121, N-{4-[1-(4-Chloro-3-fluorophenyl)-cyclopentyloxy]-3-fluorophenyl}-2-(4-ethanesulfonyl-phenyl)-acetamide] here?
A: Its IC50 is less than 50 nM.

Q: What about the inhibition at 1 µM of the same molecule?
A: The inhibition at 1 µM was 86.8%.

Q: And the inhibition at 10 µM?
A: Its inhibition at 10 µM is 90.2%.

Q: With `CCS(=O)(=O)c1ccc(CC(=O)Nc2ccc(OC3(c4ccc(Cl)c(F)c4)CCCCC3)c(F)c2)cc1` [Example 122, N-{4-[1-(4-Chloro-3-fluorophenyl)-cyclohexyloxy]-3-fluorophenyl}-2-(4-ethanesulfonyl-phenyl)-acetamide] as the molecule, how does the IC50 read?
A: The IC50 was less than 50 nM.

Q: And the inhibition at 1 µM?
A: Its inhibition at 1 µM is 77.3%.

Q: And the inhibition at 10 µM?
A: Its inhibition at 10 µM is 81.2%.

Q: For `CCS(=O)(=O)c1ccc(CC(=O)Nc2ccc(OC3(c4ccc(Cl)cc4Cl)CCCC3)cc2)cc1` [Example 123, N-{4-[1-(2,4-Dichlorophenyl)-cyclopentyloxy]-phenyl}-2-(4-ethanesulfonyl-phenyl)-acetamide], which IC50 is on record?
A: Its IC50 is less than 50 nM.

Q: What about the inhibition at 1 µM of the same molecule?
A: Its inhibition at 1 µM is 82%.

Q: What about the inhibition at 10 µM of the same molecule?
A: Its inhibition at 10 µM is 87.2%.

Q: With `CCS(=O)(=O)c1ccc(CC(=O)Nc2ccc(OC3(c4ccc(Cl)c(F)c4)CCCCC3)cc2)cc1` [Example 124, N-{4-[1-(4-Chloro-3-fluorophenyl)-cyclohexyloxy]-phenyl}-2-(4-ethanesulfonyl-phenyl)-acetamide] as the molecule, how does the IC50 read?
A: Its IC50 is less than 50 nM.

Q: And the inhibition at 1 µM?
A: Its inhibition at 1 µM is 82.2%.

Q: What about the inhibition at 10 µM of the same molecule?
A: Its inhibition at 10 µM is 84.8%.

Q: Which results are given for `CCS(=O)(=O)c1ccc(CC(=O)Nc2ccc3c(c2)nc(C(C)(C)Oc2ccc(F)cc2F)n3C2CC2)cc1` [Example 125, N-{1-Cyclopropyl-2-[1-(2,4-difluorophenoxy)-1-methylethyl]-1H-benzoimidazol-5-yl}-2-(4-ethanesulfonyl-phenyl)-acetamide]?
A: IC50: < 50 nM; inhibition at 1 µM: 89.2%; inhibition at 10 µM: 90.4%

Q: What does the source list for `CCn1c(C(C)(C)Oc2cc(F)ccc2F)nc2cc(NC(=O)Cc3ccc(S(=O)(=O)CC)cc3)ccc21` [Example 126, N-{2-[1-(2,5-Difluorophenoxy)-1-methylethyl]-1-ethyl-1H-benzoimidazol-5-yl}-2-(4-ethanesulfonylphenyl)-acetamide]?
A: IC50: < 50 nM; inhibition at 1 µM: 85.9%; inhibition at 10 µM: 89.5%

Q: Which results are given for `CCN(C(=O)C(C)(C)Oc1ccc(NC(=O)Cc2ccc(S(=O)(=O)CC)cc2)cc1)c1ccc(Cl)cc1` [Example 127, N-(4-Chlorophenyl)-2-{4-[2-(4-ethanesulfonylphenyl)acetylamino]-phenoxy}-N-ethyl-2-methylpropionamide]?
A: inhibition at 1 µM: 68%; inhibition at 10 µM: 75.8%

Q: With `CCS(=O)(=O)c1ccc(CC(=O)Nc2ccc(OC(C)(C)C(=O)N(C)c3ccc(Cl)cc3)cc2)cc1` [Example 128, N-(4-Chlorophenyl)-2-{4-[2-(4-ethanesulfonylphenyl)acetylamino]-phenoxy}-2-N-dimethylpropionamide] as the molecule, how does the inhibition at 1 µM read?
A: Its inhibition at 1 µM is 64.2%.

Q: And the inhibition at 10 µM?
A: The inhibition at 10 µM was 79.8%.

Q: `CCN(C(=O)C(C)(C)Oc1ccc(NC(=O)Cc2ccc(S(=O)(=O)CC)cc2)cc1)c1ccc(Cl)cc1Cl` [Example 129, N-(2,4-Dichlorophenyl)-N-ethyl-2-(4-(2-(4-(ethylsulfonyl)phenyl)acetamido)phenoxy)-2-methylpropanamide] was tested. Which inhibition at 1 µM did it give?
A: Its inhibition at 1 µM is 2.49%.

Q: And the inhibition at 10 µM?
A: The inhibition at 10 µM was 8.35%.

Q: Which IC50 does the source give for `CCN(C(=O)C(C)(C)Oc1ccc(NC(=O)Cc2ccc(S(=O)(=O)CC)cc2)cc1)c1ccc(Cl)c(F)c1` [Example 130, N-(4-Chloro-3-fluorophenyl)-N-ethyl-2-(4-(2-(4-(ethylsulfonyl)phenyl)acetamido)phenoxy)-2-methylpropanamide] here?
A: The IC50 was greater than 100 nM.

Q: What about the inhibition at 1 µM of the same molecule?
A: Its inhibition at 1 µM is 73%.

Q: And the inhibition at 10 µM?
A: Its inhibition at 10 µM is 85.2%.
